Values quoted from earlier work, collected in patent US20160311826A1, “SGC STIMULATORS” (IRONWOOD PHARMACEUTICALS, INC., priority 2013, published 2016).

Experiments:
[1] = test system: obese mice; conditions: cited from earlier work
[2] = test system: NO-deficient rats; conditions: cited from earlier work

In the case of `O=C(O)CCCCN(CCc1cc(F)ccc1OCc1ccc(-c2ccc(C(F)(F)F)cc2)cc1)Cc1ccc(C(=O)O)cc1` [BAY 60-2770], the overactive bladder [1] is listed as “ameliorates overactive bladder in obese mice”.

For `Nc1nc(-c2nn(Cc3ccccc3F)c3ncccc23)ncc1C1CC1` [BAY-2272], the bladder dysfunction [2] is given as “protective effects”.
